Data taken from paper PMC3853091, “Antiproliferative effects of lanreotide autogel in patients with progressive, well-differentiated neuroendocrine tumours: a Spanish, multicentre, open-label, single arm phase II study” (BMC Cancer, 2013).

Tests used:
advanced pancreatic NET = settings: patients with advanced pancreatic NET; cited from earlier work
Description: Other treatment modalities that have shown promise as antiproliferative agents for advanced NET include mTOR or tyrosine kinase inhibitors. […] The combination of everolimus and octreotide LAR also stabilised tumour growth in patients with carcinoid NET [32].

[1] = Lanreotide trough serum levels (validated RIA with 125I-labelled lanreotide); type: in vivo, human (patients); settings: human, subcutaneous, mean ± SD
Protocol: Efficacy (radiological, biochemical and clinical) and pharmacokinetic (PK) assessments were performed every 12 weeks and at the final study evaluation, 28 (±5) days after the final lanreotide dose. AEs and concomitant treatments were recorded at each 4-weekly treatment visit and at the final evaluation.
(§1) Safety analyses included AEs (coded using the Medical Dictionary for Regulatory Activities [MedDRA] version 11.1), vital signs, and serum haematology and biochemistry. Blood samples for analysis of lanreotide trough serum levels and, if applicable, for evaluation of the presence and specificity of anti-lanreotide antibodies were collected at screening and at weeks 8, 20, 32, 44, 56, 68 and 92, just before drug administration.
(§2) Tumour biomarkers, serum lanreotide concentrations and anti-lanreotide antibodies were analysed in a central laboratory. Serum CgA levels were determined using a radioimmunoassay (RIA) with coefficients of variation (CVs) of 6–10% (Cisbio International, Gif-sur-Yvette, France), and urinary 5-HIAA levels were measured using high-performance liquid chromatography with CVs of 4–6% (Bio-rad Laboratories GmbH, München, Germany). Circulating lanreotide concentrations were measured using a validated RIA with [^125I]-labelled lanreotide as a competitor for the quantification of lanreotide. During assay validation, the lower limit of quantification for lanreotide was 0.078 ng/mL and CVs were 2.3–13.6%. Anti-lanreotide antibodies were detected using a radioimmunoprecipitation assay (RIPA) with […] for immune-complex precipitation and [^125I]-labelled lanreotide as the tracer. Results were expressed as the percentage of precipitation. During validation, the assay sensitivity was 1/3,200,000 using a rabbit polyclonal anti-lanreotide antibody and intra- and inter-assay precision values were <5.7% and <5.3%, respectively. The screening assay cutpoint was determined as the 95th percentile of the distribution obtained with pre-treatment samples from 22 patients from the study. […]

[2] = Anti-lanreotide antibodies (radioimmunoprecipitation assay with confirmatory competition); type: in vivo, human (patients); settings: RIPA
Description: as §1
as §2, with “precipitation.” for “precipitation. During validation, the assay sensitivity was 1/3,200,000 using a rabbit polyclonal anti-lanreotide antibody and intra- and inter-assay precision values were <5.7% and <5.3%, respectively. The screening assay cutpoint was determined as the 95th percentile of the distribution obtained with pre-treatment samples from 22 patients from the study.”

Row | SMILES | PFS (advanced pancreatic NET) | level at 3360 h ([1]; week 20, after five injections of 120 mg every 28 days, n = 27, read-out: Steady-state trough serum lanreotide level) | level at 5376 h ([1]; week 32, 120 mg every 28 days, read-out: Mean trough serum lanreotide level (maximum)) | level at 15456 h ([1]; week 92, 120 mg every 28 days, read-out: Mean trough serum lanreotide concentration) | Patients with anti-lanreotide antibodies detected ([2]; assessments after week 8, two patients, one of them temporarily) | Anti-lanreotide antibodies in serum ([2]; week 8, all 25 patients tested)
1 | CO[C@H]1C[C@@H]2CC[C@@H](C)[C@@](O)(O2)C(=O)C(=O)N2CCCC[C@H]2C(=O)O[C@H]([C@H](C)C[C@@H]2CC[C@@H](OCCO)[C@H](OC)C2)CC(=O)[C@H](C)/C=C(\C)[C@@H](O)[C@@H](OC)C(=O)[C@H](C)C[C@H](C)/C=C/C=C/C=C/1C [everolimus] | 11.0 months |  |  |  |  | 
2 | CC(C)[C@@H]1NC(=O)[C@H](CCCCN)NC(=O)[C@@H](Cc2c[nH]c3ccccc23)NC(=O)[C@H](Cc2ccc(O)cc2)NC(=O)[C@@H](NC(=O)[C@H](N)Cc2ccc3ccccc3c2)CSSC[C@@H](C(=O)N[C@H](C(N)=O)[C@@H](C)O)NC1=O [lanreotide] |  | 5.2 ± 2 ng/mL | 6 ± 2.9 ng/mL | 5.3 ± 2 ng/mL | 7% | negative
3 | CCN(CC)CCNC(=O)c1c(C)[nH]c(/C=C2\C(=O)Nc3ccc(F)cc32)c1C [sunitinib] | 11.4 months |  |  |  |  | 
